Values quoted from earlier work, collected in patent publication US20250205255A1, “PHOSPHOLIPID COMPOSITIONS FOR TREATING INFECTIONS AND INFLAMMATION” (Celestial Therapeutics, Inc., priority 2022, published 2025).

Experiments:
[1] = test system: Respiratory Syncytial Virus (RSV); details: bronchial epithelial cells
[2] = test system: Toll-like receptor 4 (TLR4) interacting proteins CD14 and MD-2; details: through direct interactions with CD14 and MD-2

## CCCCCCCC/C=C\CCCCCCCC(=O)O[C@H](COC(=O)CCCCCCCCCCCCCCC)COP(=O)(O)OCC(O)CO (mixture of isomers) [POPG, 1-Palmitoy-2-loleoyl-sn-glycerol-3-phospho-(1′-rac-glycerol)]
[1]
  cytopathic effects induced by RSV: significantly inhibited
[1]; induced by RSV
  interleukin-6 production: significantly inhibited
  interleukin-8 production: significantly inhibited
[2]
  inflammatory responses induced by lipopolysaccharide: markedly attenuate
